Source: patent US20260109707A1, “HETEROBIFUNCTIONAL COMPOUNDS AND METHODS OF TREATING DISEASE” (Halda Therapeutics OpCo. Inc., priority 2022, published 2026)
Where two headings read alike, the source gives them in different places.

Columns and labels:
[1] = tested on: T-Rex 293 cell line SC3 cells lacking increased expression of androgen receptor protein; assay: Cellular growth inhibition assay, T-Rex 293 SC3 cells without doxycycline (CellTiter-Glo, 72 hours); assay type: cell-based; details: T-Rex 293 cell line SC3 cells not exposed to doxycycline (lacking increased androgen receptor expression)
Outline: (§1)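 Doxycycline (10 ng/mL) was either included or omitted to toggle wild-type androgen receptor expression in SC3 cells, a T-Rex 293 clone, grown in stripped-serum, phenol red-free medium. After 72 hours with compound, viable cells were quantified by CellTiter-Glo 2.0.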

VCaP cells = assay: Cellular growth inhibition assay for VCaP cells (CellTiter-Glo, 72 hours); assay type: cell-based, human
Outline: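 Luminescent viability signal after 72 h of compound exposure gave GI50 values by four-parameter nonlinear regression. Compounds were added in 0.5% DMSO to cells plated 24 h earlier at 5000/well in DMEM containing 10% FBS.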

[2] = tested on: T-Rex 293 cell line SC3 cells having increased expression of androgen receptor protein due to exposure to doxycycline; assay: Cellular growth inhibition assay, T-Rex 293 SC3 cells with doxycycline (CellTiter-Glo, 72 hours); assay type: cell-based; details: T-Rex 293 SC3 cells with increased androgen receptor expression due to doxycycline (10 ng/mL)
Outline: as §1

| Structure (SMILES) | GI50 (VCaP cells; Homo sapiens, VCaP, 72 h) | GI50 (VCaP cells) | GI50 [1] | GI50 [2] | GI50 ([1]; 72 h) | GI50 ([2]; 72 h) |
| --- | --- | --- | --- | --- | --- | --- |
| Cc1sc2c(c1C)C(c1ccc(N3C4CC(=O)CC3CN(c3ncc(C(=O)N[C@H]5CC[C@H](Oc6ccc(C#N)c(Cl)c6)CC5)cn3)C4)cc1)=NC(Cc1ncco1)c1nnc(C)n1-2 (stereo partly drawn) [I-802] | < 500 nM |  | 500 to 1500 nM | < 500 nM |  |  |
| CCNC(=O)C[C@@H]1N=C(c2cccc(OCCOCCOCCOC3CCN(c4ncc(C(=O)N[C@H]5CC[C@H](Oc6ccc(C#N)c(Cl)c6)CC5)cn4)CC3)c2)c2c(sc(C)c2C)-n2c(C)nnc21 [I-11] | 500 to 1500 nM |  |  |  | > 3000 nM | < 500 nM |
| C#Cc1ccc(O[C@H]2CC[C@H](NC(=O)c3ccc(N4CCC(C5CN(c6ccc(C7=NC8(CC8)c8nnc(C)n8-c8sc(C)c(C)c87)nc6)C5)CC4)nn3)CC2)cc1Cl [I-516] | > 3000 nM |  |  |  | > 3000 nM | < 500 nM |
| Cc1sc2c(c1C)C(c1ccc(C3CCC4(CCN(c5ccc(C(=O)N[C@H]6CC[C@H](Oc7ccc(C#N)c(Cl)c7)CC6)nn5)CC4)C3)cc1)=NC(C(F)(F)F)c1nnc(C)n1-2 (stereo partly drawn) [I-761] |  | < 500 nM | > 3000 nM | > 3000 nM |  |  |
| Cc1sc2c(c1C)C(c1ccc(C3CCC4(CCN(c5ccc(C(=O)N[C@H]6CC[C@H](Oc7ccc(C#N)c(Cl)c7)CC6)nn5)CC4)C3)nc1)=NC1(CC1)c1nnc(C)n1-2 (stereo partly drawn) [I-609] | < 500 nM |  | 500 to 1500 nM |  |  | < 500 nM |
| Cc1sc2c(c1C)C(c1ccc(N3C[C@H]4CN(c5ccc(C(=O)N[C@H]6CC[C@H](Oc7ccc(C#N)c(Cl)c7)CC6)nn5)C[C@H]4C3)c(F)c1)=N[C@@H](C)c1nnc(C)n1-2 [I-703] | 500 to 1500 nM |  |  |  | < 500 nM | < 500 nM |
| Cc1sc2c(c1C)C(c1ccc(N3CCC4CN(c5ccc(C(=O)N[C@H]6CC[C@H](Oc7ccc(C#N)c(Cl)c7)CC6)nn5)CCC4C3)cc1)=NC1(CC1)c1nnc(C)n1-2 (stereo partly drawn) [I-565] |  | > 3000 nM | < 500 nM | < 500 nM |  |  |
| Cc1sc2c(c1C)C(c1ccc(N3CC(CC4CCCN(c5ccc(C(=O)N[C@H]6CC[C@H](Oc7ccc(C#N)c(Cl)c7)CC6)nn5)C4)C3)cc1)=NC1(CC1)c1nnc(C)n1-2 (stereo partly drawn) [I-562] |  | > 3000 nM |  | < 500 nM | < 500 nM |  |
| Cc1sc2c(c1C)C(c1ccc(C3CCC4(CCN(c5ccc(C(=O)N[C@H]6CC[C@H](Oc7ccc(C#N)c(Cl)c7)CC6)nn5)CC4)C3)nc1)=NC1(CC1)c1nnc(C)n1-2 (stereo partly drawn) [I-738] |  | < 500 nM | > 3000 nM | < 500 nM |  |  |
| Cc1sc2c(c1C)C(c1ccc(C#CC3CC4(C3)CN(c3ccc(C(=O)N[C@H]5CC[C@H](Oc6ccc(C#N)c(Cl)c6)CC5)nn3)C4)cn1)=N[C@@H](C)c1nnc(C)n1-2 [I-458] | < 500 nM |  |  |  | < 500 nM | < 500 nM |
| Cc1sc2c(c1C)C(c1ccc(N3CC(C4CCN(c5ccc(C(=O)N[C@H]6CC[C@H](Oc7ccc(C#N)c(Cl)c7)CC6)nn5)CC4)C3)nc1)=N[C@@H](C)c1nnc(C)n1-2 [I-463] | 500 to 1500 nM |  |  |  | 500 to 1500 nM | < 500 nM |
| Cc1sc2c(c1C)C(c1ccc(OC3CCC4(C3)CN(c3ccc(C(=O)N[C@H]5CC[C@H](Oc6ccc(C#N)c(Cl)c6)CC5)nn3)CCO4)cc1)=NC1(CC1)c1nnc(C)n1-2 (stereo partly drawn) [I-508] |  | < 500 nM | > 3000 nM | < 500 nM |  |  |
| Cc1sc2c(c1C)C(c1ccc(CC3CC4(CCCN(c5ccc(C(=O)N[C@H]6CC[C@H](Oc7ccc(C#N)c(Cl)c7)CC6)nn5)C4)C3)cn1)=NC(Cc1ncco1)c1nnc(C)n1-2 (stereo partly drawn) [I-771] |  | < 500 nM | < 500 nM | < 500 nM |  |  |
| Cc1sc2c(c1C)C(c1cccc(OC3CCN(c4ccc(C(=O)N[C@H]5CC[C@H](Oc6ccc(C#N)c(Cl)c6)CC5)nn4)CC3)c1)=N[C@@H](C)c1nnc(C)n1-2 [I-680] | < 500 nM |  |  |  | > 3000 nM | < 500 nM |
| Cc1sc2c(c1C)C(c1ccc(NCC3(F)CCN(c4ncc(C(=O)N[C@H]5CC[C@H](Oc6ccc(C#N)c(Cl)c6)CC5)cn4)CC3)cc1)=NC(Cc1ncco1)c1nnc(C)n1-2 (stereo partly drawn) [I-784] | < 500 nM |  |  |  | < 500 nM | < 500 nM |
| Cc1sc2c(c1C)C(c1ccc(N3CCC4(CCCN(c5ccc(C(=O)N[C@H]6CC[C@H](Oc7ccc(C#N)c(Cl)c7)CC6)nn5)C4)CC3)nc1)=NCc1nnc(C)n1-2 [I-476] | < 500 nM |  |  |  | > 3000 nM | < 500 nM |
| COCC[C@@H]1N=C(c2ccc(C#CC3CC4(C3)CN(c3ccc(C(=O)N[C@H]5CC[C@H](Oc6ccc(C#N)c(Cl)c6)CC5)nn3)C4)cc2)c2c(sc(C)c2C)-n2c(C)nnc21 [I-572] | < 500 nM |  |  |  | < 500 nM | < 500 nM |
| COCC[C@@H]1N=C(c2ccc(N3CCC4(CCN(c5ccc(C(=O)N[C@H]6CC[C@H](Oc7ccc(C#N)c(Cl)c7)CC6)nn5)CC4)C3)cc2)c2c(sc(C)c2C)-n2c(C)nnc21 [I-600] | > 3000 nM |  |  |  | < 500 nM | < 500 nM |
| Cc1sc2c(c1C)C(c1ccc(N3CC4(CCC(Cc5ccc(C(=O)N[C@H]6CC[C@H](Oc7ccc(C#N)c(Cl)c7)CC6)nn5)CC4)C3)cc1)=N[C@@H](Cc1ncco1)c1nnc(C)n1-2 [I-515] | < 500 nM |  |  |  | > 3000 nM | < 500 nM |
| Cc1sc2c(c1C)C(c1ccc(C3CCC(CC4CCN(c5ccc(C(=O)N[C@H]6CC[C@H](Oc7ccc(C#N)c(Cl)c7)CC6)nn5)CC4)CC3)cc1)=N[C@@H](C)c1nnc(C)n1-2 (stereo partly drawn) [I-764] | < 500 nM |  |  |  | > 3000 nM | < 500 nM |

More lines, main results first:

| GI50 (VCaP cells; Homo sapiens, VCaP, 72 h) | GI50 (VCaP cells) | Structure (SMILES) | GI50 [1] | GI50 [2] | GI50 ([1]; 72 h) | GI50 ([2]; 72 h) |
| --- | --- | --- | --- | --- | --- | --- |
|  | < 500 nM | Cc1sc2c(c1C)C(c1ccc(CC3CCC4(CCCN(c5ccc(C(=O)N[C@H]6CC[C@H](Oc7ccc(C#N)c(Cl)c7)CC6)nn5)C4)C3)nc1)=N[C@@H](C)c1nnc(C)n1-2 (stereo partly drawn) [I-666] | > 3000 nM | < 500 nM |  |  |
| < 500 nM |  | Cc1sc2c(c1C)C(c1cccc(CC3CC4(CCCN(c5ccc(C(=O)N[C@H]6CC[C@H](Oc7ccc(C#N)c(Cl)c7)CC6)nn5)C4)C3)c1)=N[C@@H](C)c1nnc(C)n1-2 (stereo partly drawn) [I-711] |  |  | > 3000 nM | < 500 nM |
|  | < 500 nM | Cc1sc2c(c1C)C(c1ccc(CC3CCC4(C3)CN(c3ccc(C(=O)N[C@H]5CC[C@H](Oc6ccc(C#N)c(Cl)c6)CC5)nn3)CCO4)cc1)=N[C@@H](C)c1nnc(C)n1-2 (stereo partly drawn) [I-580] | < 500 nM | < 500 nM |  |  |
|  | < 500 nM | Cc1sc2c(c1C)C(c1ccc(C3CCC4(CCN(c5ccc(C(=O)N[C@H]6CC[C@H](Oc7ccc(C#N)c(Cl)c7)CC6)nn5)CC4)C3)nc1)=N[C@@H](C)c1nnc(C)n1-2 (stereo partly drawn) [I-553] | < 500 nM |  |  | < 500 nM |
|  | > 3000 nM | Cc1sc2c(c1C)C(c1ccc(C3CCC4(CCN(c5ccc(C(=O)N[C@H]6CC[C@H](Oc7ccc(C#N)c(Cl)c7)CC6)nn5)CC4)C3)nc1)=N[C@@H](C)c1nnc(C)n1-2 (stereo partly drawn) [I-575] |  | < 500 nM | < 500 nM |  |
|  | < 500 nM | Cc1sc2c(c1C)C(c1ccc(CC3CCC4(CCCN(c5ccc(C(=O)N[C@H]6CC[C@H](Oc7ccc(C#N)c(Cl)c7)CC6)nn5)C4)C3)cn1)=N[C@@H](C)c1nnc(C)n1-2 (stereo partly drawn) [I-636] | 500 to 1500 nM | < 500 nM |  |  |
|  | < 500 nM | Cc1sc2c(c1C)C(c1ccc(OCC3CCC4(CCCN(c5ccc(C(=O)N[C@H]6CC[C@H](Oc7ccc(C#N)c(Cl)c7)CC6)nn5)C4)C3)cc1)=N[C@@H](C)c1nnc(C)n1-2 (stereo partly drawn) [I-637] | < 500 nM | < 500 nM |  |  |
| < 500 nM |  | Cc1sc2c(c1C)C(c1ccc(N3CCC4(CCN(c5ccc(C(=O)N[C@H]6CC[C@H](Oc7ccc(C#N)c(Cl)c7)CC6)nn5)C4)C3)c(F)c1)=N[C@@H](C)c1nnc(C)n1-2 (stereo partly drawn) [I-745] | < 500 nM | < 500 nM |  |  |
| < 500 nM |  | Cc1sc2c(c1C)C(c1ccc(N3CCC4(CC3)CCN(c3ccc(C(=O)N[C@H]5CC[C@H](Oc6ccc(C#N)c(Cl)c6)CC5)nn3)CC4)cc1)=N[C@@H](C)c1nnc(C)n1-2 [I-485] |  |  | < 500 nM | < 500 nM |
| < 500 nM |  | COC[C@@H]1N=C(c2ccc(C3CCC4(CCCN(c5ccc(C(=O)N[C@H]6CC[C@H](Oc7ccc(C#N)c(Cl)c7)CC6)nn5)C4)CC3)cc2)c2c(sc(C)c2C)-n2c(C)nnc21 (stereo partly drawn) [I-654] | > 3000 nM |  |  | < 500 nM |
|  | < 500 nM | Cc1sc2c(c1C)C(c1ccc(COC3CCC4(C3)CN(c3ccc(C(=O)N[C@H]5CC[C@H](Oc6ccc(C#N)c(Cl)c6)CC5)nn3)CCO4)cc1)=N[C@@H](C)c1nnc(C)n1-2 (stereo partly drawn) [I-559] | < 500 nM | < 500 nM |  |  |
|  | < 500 nM | Cc1sc2c(c1C)C(c1ccc(OC3CC(CC4CCN(c5ccc(C(=O)N[C@H]6CC[C@H](Oc7ccc(C#N)c(Cl)c7)CC6)nn5)CC4)C3)cc1)=N[C@@H](C)c1nnc(C)n1-2 (stereo partly drawn) [I-544] | > 3000 nM | < 500 nM |  |  |
| < 500 nM |  | Cc1sc2c(c1C)C(c1ccc(N3CCC4(CC3)CCN(c3ccc(C(=O)N[C@H]5CC[C@H](Oc6ccc(C#N)c(Cl)c6)CC5)nn3)C4)cc1)=N[C@H](C)c1nnc(C)n1-2 [I-591] |  |  | > 3000 nM | < 500 nM |
|  | 500 to 1500 nM | COC[C@@H]1N=C(c2ccc(C3CCC4(CCCN(c5ccc(C(=O)N[C@H]6CC[C@H](Oc7ccc(C#N)c(Cl)c7)CC6)nn5)C4)CC3)cc2)c2c(sc(C)c2C)-n2c(C)nnc21 (stereo partly drawn) [I-655] | < 500 nM | < 500 nM |  |  |
